Results reported in patent publication EP3400955B1, “USE OF CRYPTONIN FOR TREATMENT OF CANCER” (Istanbul Universitesi Rektorlugu, priority 2016, dated 2025).
Where two headings read alike, the source gives them in different places. Ends that are not written are not given here.

How the values were obtained:
MCF-7 cells [1] = conditions: 24 hours, positive control = 100%
Method: (§1) The lactate dehydrogenase (LDH) release assay is based on the measurement of a cytoplasmic enzyme, lactate dehydrogenase, activity released from damaged cells (Lobner, 2000) and is used for the assessment of cellular cytotoxicity. The cytotoxic effect of cryptonin on MCF-7 and MDA-MB 231 breast cancer cell lines was determined by measuring the activity of lactate dehydrogenase (LDH) enzyme released from damaged cells and a Cytotoxicity Detection Kit, LDH (Roche Molecular Diagnostics, Germany) was used for this purpose.
(§2) In LDH test, a negative control, a control group for spontaneous LDH release from the cells, and a positive control group for maximum LDH release were studied, as well as experimental groups to which peptide was administered. […] For this purpose, doses of 10, 25, 50 and 100 µg/ml were administered for MCF-7 cells and doses of 7.5, 10, 25 and 50 µg/ml were administered for MDA-MB 231 cells, for 24 hours. Cells were grown in the flasks of 75 cm, then removed with trypsin-EDTA and centrifuged. Cells were suspended in medium at 5000 cells per 100 µl, and 100 µl of cell suspension was transferred to 96-well plates. All control groups and experimental groups were studied with 3 wells and the experiment was repeated 3 times. After a 24-hour incubation, the media of the control groups were refreshed. The medium of the experimental groups was replaced with a medium containing different concentrations of peptide. The lactate dehydrogenase enzyme activity released from the cells after the cells were incubated with cryptonin for 24 hours was determined following the manufacturer's instructions. 5 µl of lysis solution (2% Triton-X-100) was added to the wells of the positive control group and the plate was incubated for 15 minutes at 37°C. To measure LDH activity, 100 µl of the freshly prepared reaction mixture containing catalyst (Diaphorase/NAD^+ mixture) and dye solution (iodotetrazolium chloride (INT) and sodium lactate) was added to each well. After 30 minutes of incubation in the dark at room temperature, the reaction was stopped by the addition of 50 µL of stop solution (1N HCl) to each well. The plates were shaken for 10 seconds on an orbital shaker and the spectrophotometric absorbance was measured at a test wavelength of 490 nm and a reference wavelength of 690 nm. The results were determined as % cytotoxicity. The mean absorbance values of the negative control were subtracted from the control and experimental groups, the positive control group was considered to be 100% cytotoxic and the cytotoxicities were calculated by comparing the control and experimental groups with positive control group using the following formula: [formula]

MDA-MB 231 cells [2] = conditions: 24 hours, positive control = 100%
Method: as §1, §2

MCF-7 cells [3] = assay: Type of cell death by acridine orange/ethidium bromide double staining; assay type: cell-based; conditions: 24 hours, mean +/- Standard Error
Method: (§3) Cells were stained with acridine orange/ethidium bromide double staining method to morphologically analyze whether cryptonin-induced cell death occurs by a necrotic pathway or by an apoptotic pathway. For this purpose, breast cancer cells were plated in a 24-well plate, with 10,000 cells being present in each well and incubated for 24 hours at the above-mentioned different concentrations of antimicrobial peptides. After incubation, a mixture of acridine orange (Sigma) (100 µg/ml) /ethidium bromide stain (Sigma) (100 µg/ml) prepared in PBS was applied to the cells and the cells were visualized using a FITC/CY3 filter on a fluorescent microscope (Nikon DS5MCU2). 200 cells from each group were counted according to the staining pattern. Cells were grouped as viable, apoptotic and necrotic according to the staining pattern of their nuclei (Spector et al., 1998). Viable cells were distinguished as having green chromatin nuclei in an organized structure, apoptotic cells were distinguished as having green or orange fragmented nuclei, and necrotic cells were distinguished as normal colored but having orange nuclei like normal cells (Ribble et al., 2005).

MDA-MB 231 cells [4] = assay: as above; assay type: cell-based; conditions: 24 hours, mean +/- Standard Error
Method: as §3

[5] = test system: 3T3 Fibroblast Cell Membrane; conditions: 100 µg/ml, 24-hour incubation
Method: MCF-7 and MDA-MB 231 and 3T3 fibroblast cells were plated into sterile round slides with a diameter of 12 mm in the wells in 24-well plate such that each well contained 50,000 cells. The following day, the medium was replaced with a medium containing cryptonin at a concentration of 100 µg/ml. After 24-hour incubation, the cells were washed 2 times with 0.1 M sodium cacodylate buffer (pH 7.2) and fixed with 2.5% glutaraldehyde prepared in 0.1 M sodium cacodylate buffer for 2 hours. After the first fixation, the cells were washed again with 0.1 M sodium cacodylate buffer and fixed with 1% osmium tetroxide prepared in 0.2 M sodium cacodylate buffer for 30 minutes for the second time. After the cells were washed with 0.2 M sodium cacodylate buffer, they were taken in an increasing series of ethyl alcohol. Dehydration was performed by incubation 3 times with 30% alcohol for 5 minutes, 3 times with 50% alcohol for 5 minutes, 2 times with 70% alcohol for 10 minutes, 2 times with 85% alcohol for 15 minutes, 2 times with 95% alcohol for 15 minutes and 3 times with 100% alcohol for 10 minutes. After the slides were air-dried, they were coated with golden by BioRad SC 502 coating device. The cells were examined with Jeol Neoscope JCM-500 scanning electron microscope and their photographs were taken (Vitale et al., 1998; Hilchie et al., 2011).

erythrocytes = conditions: dose of 25-200 µg/ml; Park et al. (2007); cited from earlier work

Method for 3T3 fibroblast cells: Yellow MTT is reduced to purple formazan crystals by the activity of mitochondrial dehydrogenases in viable cells. The intensity of the resulting purple color is directly proportional to the number of viable cells. MTT test was performed in 96-well plates. To this end, the cells grown in the flasks were removed by trypsin-EDTA, then collected by centrifugation and the cell pellet was suspended in the medium such that 5000 cells would be present per 100 µl. 5000 cells were plated in each well of the plate. In the following day, the medium in the wells was removed, fresh medium was added to the control group, and a medium containing anti-microbial peptide was added to the experimental groups at 8 different concentrations. This medium contained 10% serum.
Cells were exposed to different concentrations of antimicrobial peptide for 24 hours. At the end of this period, 30 µl of a solution of 3-(4,5-dimethylthiazol-2-yl)-2,5-diphenyltetrazolium bromide (MTT) was added to each well in the plate. […] The optical density was measured at a test wavelength of 570 nm and a reference wavelength of 630 nm. […] The mean absorbance values obtained from the control group were accepted as 100% cell viability and the values obtained from the wells treated with antimicrobial peptide were assessed versus control group.

For GLLNGLALRLGKRALKKIIKRLCR [cryptonin], the “LDH release (% cytotoxicity)” value (MCF-7 cells [1]; 25 µg/ml) was 36.03±2.1%, the “LDH release (% cytotoxicity)” value (MCF-7 cells [1]; 50 ug/ml) was 84.1±1.7% and the “LDH release (% cytotoxicity)” value (MCF-7 cells [1]; 100 µg/ml) was 84.66±1.6%. The “LDH release (% cytotoxicity)” value (MDA-MB 231 cells [2]; 7.5 µg/ml) was 7.09±0.7%, the “LDH release (% cytotoxicity)” value (MDA-MB 231 cells [2]; 10 µg/ml) was 8.46±0.9% and the “LDH release (% cytotoxicity)” value (MDA-MB 231 cells [2]; 25 µg/ml) was 24.24±2.1%. The “LDH release (% cytotoxicity)” value (MDA-MB 231 cells [2]; 50 µg/ml) was 45.90±1%, the Viable cell % (MCF-7 cells [3]; 10 µg/ml) was 98.89±5% and the Viable cell % (MCF-7 cells [3]; 25 µg/ml) was 85.3±4.8%. It also gave a Viable cell % (MCF-7 cells [3]; 50 µg/ml) of 1.07±1.1%, a Viable cell % (MCF-7 cells [3]; 100 µg/ml) of 0.06±0.2% and a Viable cell % (MCF-7 cells [3]; 200 µg/ml) of 2.14±1.8%. The Viable cell % (MDA-MB 231 cells [4]; 10 µg/ml) was 95.88±1.6%, the Viable cell % (MDA-MB 231 cells [4]; 25 µg/ml) was 95.53±2.9% and the Viable cell % (MDA-MB 231 cells [4]; 50 µg/ml) was 45.13±4.1%. The Viable cell % (MDA-MB 231 cells [4]; 100 µg/ml) was 0.04±0.1%, the Viable cell % (MDA-MB 231 cells [4]; 200 µg/ml) was 0±0% and the fibroblast cell viability (3T3 fibroblast cells; dose range 25-200 µg/ml) was “significantly reduced”. For the same sequence, the “number of viable cells” value (3T3 fibroblast cells; less at 10 µg/ml, more at 25, 50, 100 and 200 µg/ml, 24 hours, cells representing normal cells) was “reduced the number of viable cells”, the “effect on cell membrane (scanning electron microscope)” value [5] was “disrupted the cell membrane integrity by forming pores, slits and blebs” and the hemolysis of erythrocytes (erythrocytes) was 5%.
